# Assay results reported in patent publication US12252484B2, “Pyrazolopyridine compounds for the treatment of autoimmune disease” (Hoffmann-La Roche Inc., priority 2018, dated 2025).
# Target: T1, human TLR7 (Homo sapiens, UniProt Q9NYK1)
# T1 sequence (Q9NYK1 27-1049): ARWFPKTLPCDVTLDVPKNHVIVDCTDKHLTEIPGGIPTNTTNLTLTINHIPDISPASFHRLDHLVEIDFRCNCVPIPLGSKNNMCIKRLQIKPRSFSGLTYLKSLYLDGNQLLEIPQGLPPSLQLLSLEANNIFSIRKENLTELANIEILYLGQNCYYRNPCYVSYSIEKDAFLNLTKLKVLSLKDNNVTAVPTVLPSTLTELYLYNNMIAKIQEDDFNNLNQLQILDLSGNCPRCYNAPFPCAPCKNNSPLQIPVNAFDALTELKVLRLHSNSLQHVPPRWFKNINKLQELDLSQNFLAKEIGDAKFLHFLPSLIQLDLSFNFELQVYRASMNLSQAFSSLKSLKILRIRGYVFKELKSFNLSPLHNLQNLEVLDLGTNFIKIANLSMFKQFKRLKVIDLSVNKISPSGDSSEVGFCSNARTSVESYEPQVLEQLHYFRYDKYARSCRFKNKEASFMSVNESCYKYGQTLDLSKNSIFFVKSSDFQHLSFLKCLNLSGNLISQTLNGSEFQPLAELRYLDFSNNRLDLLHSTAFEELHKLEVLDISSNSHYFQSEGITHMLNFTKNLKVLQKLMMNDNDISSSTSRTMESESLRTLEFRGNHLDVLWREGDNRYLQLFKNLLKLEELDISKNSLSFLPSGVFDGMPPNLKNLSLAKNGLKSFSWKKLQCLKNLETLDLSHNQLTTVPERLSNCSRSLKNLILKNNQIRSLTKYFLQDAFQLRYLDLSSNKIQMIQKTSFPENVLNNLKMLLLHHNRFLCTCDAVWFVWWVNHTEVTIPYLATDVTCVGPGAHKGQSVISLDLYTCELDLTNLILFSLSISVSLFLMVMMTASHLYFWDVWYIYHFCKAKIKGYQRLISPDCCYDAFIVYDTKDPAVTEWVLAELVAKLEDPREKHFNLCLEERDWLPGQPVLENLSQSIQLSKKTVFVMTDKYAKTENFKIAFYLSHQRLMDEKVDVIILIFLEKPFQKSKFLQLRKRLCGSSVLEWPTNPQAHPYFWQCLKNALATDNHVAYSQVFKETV
# Assay: HEK293-Blue-hTLR-7 cells assay (SEAP reporter, R848 stimulation)
# Type: cell-based
# Conditions: HEK293-Blue-hTLR-7 cells, R848 ligand, 20 hrs incubation; read-out: TLR7 IC50
# Method: The following tests were carried out in order to determine the activity of the compounds of formula (I) in HEK293-Blue-hTLR-7/8/9 cells assay.
# HEK293-Blue-hTLR-7 Cells Assay:
# A stable HEK293-Blue-hTLR-7 cell line was purchased from InvivoGen (Cat. #: hkb-htlr7, San Diego, California, USA). These cells were originally designed for studying the stimulation of human TLR7 by monitoring the activation of NF-κB. A SEAP (secreted embryonic alkaline phosphatase) reporter gene was placed under the control of the IFN-β minimal promoter fused to five NF-κB and AP-1-binding sites. The SEAP was induced by activating NF-κB and AP-1 via stimulating HEK-Blue hTLR7 cells with TLR7 ligands. Therefore the reporter expression was declined by TLR7 antagonist under the stimulation of a ligand, such as R848 (Resiquimod), for incubation of 20 hrs. The cell culture supernatant SEAP reporter activity was determined using QUANTI-Blue™ kit (Cat. #: rep-qb1, Invivogen, San Diego, Ca, USA) at a wavelength of 640 nm, a detection medium that turns purple or blue in the presence of alkaline phosphatase.
# HEK293-Blue-hTLR7 cells were incubated at a density of 250,000˜450,000 cells/mL in a volume of 170 μL in a 96-well plate in Dulbecco's Modified Eagle's medium (DMEM) containing 4.5 g/L glucose, 50 U/mL penicillin, […], […], 2 mM L-glutamine, 10% (v/v) heat-inactivated fetal bovine serum with addition of 20 μL test compound in a serial dilution in the presence of final DMSO at 1% and 10 μL of 20 uM R848 in above DMEM, perform incubation under 37° C. in a CO2 incubator for 20 hrs. Then 20 μL of the supernatant from each well was incubated with 180 μL Quanti-blue substrate solution at 37° C. for 2 hrs and the absorbance was read at 620˜655 nm using a spectrophotometer. The signalling pathway that TLR7 activation leads to downstream NF-κB activation has been widely accepted, and therefore similar reporter assay was modified for evaluating TLR7 antagonist.
row,IC50 [nM],Compound
1,170,"C[C@H]1C[C@@H](NCC#N)CN(c2ccc(C#N)n3nccc23)C1 [Example 46, 4-[(3R,5S)-3-(cyanomethylamino)-5-methyl-1-piperidyl]pyrazolo[1,5-a]pyridine-7-carbonitrile]"
2,12,"C[C@@H]1CN(c2ccc(C#N)n3nccc23)C[C@H](C(=O)Nc2ccc(C(=O)N3CCNCC3)cc2)O1 [Example 42, (2R,6R)-4-(7-cyanopyrazolo[1,5-a]pyridin-4-yl)-6-methyl-N-[4-(piperazine-1-carbonyl)phenyl]morpholine-2-carboxamide]"
3,10,"C[C@@H]1CN(c2ccc(C#N)n3nccc23)C[C@H](C(=O)NC2CC3CCC2CN3C)O1 (stereo partly drawn) [Example 34, (2R,6R)-4-(7-cyanopyrazolo[1,5-a]pyridin-4-yl)-6-methyl-N-(2-methyl-2-azabicyclo[2.2.2]octan-5-yl)morpholine-2-carboxamide]"
4,9,"C[C@@H]1CN(c2ccc(C#N)n3nccc23)C[C@H](C(=O)NC2C3CCCC2CNC3)O1 (stereo partly drawn) [Example 37, (2R,6R)-N-(3-azabicyclo[3.3.1]nonan-9-yl)-4-(7-cyanopyrazolo[1,5-a]pyridin-4-yl)-6-methyl-morpholine-2-carboxamide]"
5,8,"C[C@@H]1CN(c2ccc(C#N)n3ncc(F)c23)C[C@H](C(=O)NC2CCN(C)CC2)O1 [Example 47, (2R,6R)-4-(7-cyano-3-fluoro-pyrazolo[1,5-a]pyridin-4-yl)-6-methyl-N-(1-methyl-4-piperidyl)morpholine-2-carboxamide]"
6,31,"C[C@@H]1CN(c2ccc(C#N)n3nccc23)C[C@H](C(=O)NC2CN(C)CC23CC3)O1 (stereo partly drawn) [Example 32, (2R,6R)-4-(7-cyanopyrazolo[1,5-a]pyridin-4-yl)-6-methyl-N-(5-methyl-5-azaspiro[2.4]heptan-7-yl)morpholine-2-carboxamide]"

# Continued, compound first:
row,Compound,IC50 [nM]
1,"CCC(O)CNC(=O)[C@H]1CN(c2ccc(C#N)n3nccc23)C[C@@H](C)O1 (stereo partly drawn) [Example 13, (2R,6R)-4-(7-cyanopyrazolo[1,5-a]pyridin-4-yl)-N-(2-hydroxybutyl)-6-methyl-morpholine-2-carboxamide]",490
2,"C[C@@H]1CN(c2ccc(C#N)n3nccc23)C[C@H](C(=O)NC2CCNCC2)O1 [Example 24, (2R,6R)-4-(7-cyanopyrazolo[1,5-a]pyridin-4-yl)-6-methyl-N-(4-piperidyl)morpholine-2-carboxamide]",43
3,"C[C@@H]1CN(c2ccc(C#N)n3nccc23)C[C@H](C(=O)NC2C3CNCC2COC3)O1 (stereo partly drawn) [Example 27, (2R,6R)-4-(7-cyanopyrazolo[1,5-a]pyridin-4-yl)-6-methyl-N-(3-oxa-7-azabicyclo[3.3.1]nonan-9-yl)morpholine-2-carboxamide]",63
4,"C[C@@H]1CN(c2ccc(C#N)n3nccc23)C[C@H](C(=O)NC(C)(C)CO)O1 [Example 16, (2R,6R)-4-(7-cyanopyrazolo[1,5-a]pyridin-4-yl)-N-(2-hydroxy-1,1-dimethyl-ethyl)-6-methyl-morpholine-2-carboxamide]",460
5,"C[C@@H]1CN(c2ccc(C#N)n3nccc23)C[C@H](C(=O)NC2CCCNCC2)O1 (stereo partly drawn) [Example 6, (2R,6R)-N-(azepan-4-yl)-4-(7-cyanopyrazolo[1,5-a]pyridin-4-yl)-6-methyl-morpholine-2-carboxamide]",16
6,"C[C@@H]1CN(c2ccc(C#N)n3nccc23)C[C@H](C(=O)NC2C3CNC[C@@H]32)O1 (stereo partly drawn) [Example 31, Trans-(2R,6R)-N-(3-azabicyclo[3.1.0]hexan-6-yl)-4-(7-cyanopyrazolo[1,5-a]pyridin-4-yl)-6-methyl-morpholine-2-carboxamide]",50
7,"C[C@@H]1CN(c2ccc(C#N)n3nccc23)C[C@H](C(=O)NC2(C)CCNCC2)O1 [Example 19, (2R,6R)-4-(7-cyanopyrazolo[1,5-a]pyridin-4-yl)-6-methyl-N-(4-methyl-4-piperidyl)morpholine-2-carboxamide]",99
8,"C[C@@H]1CN(c2ccc(C#N)n3nccc23)C[C@H](C(=O)NC2CCN(C)CC2)O1 [Example 1, (2R,6R)-4-(7-cyanopyrazolo[1,5-a]pyridin-4-yl)-6-methyl-N-(1-methyl-4-piperidyl)morpholine-2-carboxamide]",17
9,"C[C@@H]1CN(c2ccc(C#N)n3nccc23)C[C@H](C(=O)NCC2CN(C)CCO2)O1 (stereo partly drawn) [Example 7, (2R,6R)-4-(7-cyanopyrazolo[1,5-a]pyridin-4-yl)-6-methyl-N-[(4-methylmorpholin-2-yl)methyl]morpholine-2-carboxamide]",67
10,"C[C@@H]1CN(c2ccc(C#N)n3nccc23)C[C@H](C(=O)NC2CC3COCC(C2)N3)O1 (stereo partly drawn) [Example 22, Endo-(2R,6R)-4-(7-cyanopyrazolo[1,5-a]pyridin-4-yl)-6-methyl-N-[3-oxa-9-azabicyclo[3.3.1]nonan-7-yl]morpholine-2-carboxamide]",10
11,"CCC(C)(C)NC(=O)[C@H]1CN(c2ccc(C#N)n3nccc23)C[C@@H](C)O1 [Example 17, (2R,6R)-4-(7-cyanopyrazolo[1,5-a]pyridin-4-yl)-N-(1,1-dimethylpropyl)-6-methyl-morpholine-2-carboxamide]",360
12,"C[C@@H]1CN(c2ccc(C#N)n3nccc23)C[C@H](C(=O)NCC2CNCC2(F)F)O1 (stereo partly drawn) [Example 18, (2R,6R)-4-(7-cyanopyrazolo[1,5-a]pyridin-4-yl)-N-[(4,4-difluoropyrrolidin-3-yl)methyl]-6-methyl-morpholine-2-carboxamide]",55
